What all share (format): cell-based
Experiment [1] concerns Staphylococcus aureus AH1872. The experiment is described as follows: microbe, parasite or virus in culture. As to conditions: AH1872, 18 h.
The test system of experiment [2] is Staphylococcus aureus AH430. Briefly: MIC by microtiter broth dilution, strain AH430. The conditions noted are these: 18 hrs static; for MIC50: at least 50% inhibition of growth by OD; for MIC90: at least 90% inhibition of growth by OD.
In experiment [3] the test system is Propionibacterium acnes ATCC6919. Briefly: Growth inhibition (MIC) of Propionibacterium acnes ATCC6919. The conditions noted are these: Cutibacterium acnes.
The test system of experiment [4] is Propionibacterium acnes HL005PA2. The experiment is described as follows: Growth inhibition (MIC) of Propionibacterium acnes HL005PA2. The conditions noted are these: Cutibacterium acnes, P. acnes HL005PA2.
Experiment [5] relates to Staphylococcus aureus UAMS-1. Briefly: MIC by microtiter broth dilution, strain UAMS-1. The conditions noted are these: 18 hrs static.
Experiment [6] has as its system Staphylococcus aureus AH1747. The experiment is described as follows: MIC by microtiter broth dilution, strain AH1747. As to conditions: 18 hrs static. A general note: Dilution methods test growth across graded concentrations, often in twofold steps.

This passage reports MIC50 and MIC90 results from patent publication US10675321B2, “Botanical extracts and compounds from Castanea plants and methods of use” (priority 2015, dated 2020).

≈ marks a conversion by molar mass, not a printed value.

`CC1(C)S[C@@H]2[C@H](NC(=O)[C@H](N)c3ccccc3)C(=O)N2[C@H]1C(=O)O` [Amp, Ampicillin]: the MIC50 came out at 4 µg/mL (≈ 11.4 µM) in experiment [1] and 0.0625 µg/mL (≈ 0.179 µM) in experiment [2]. The MIC90 was found to be 8 µg/mL (≈ 22.9 µM) in experiment [1] and 0.125 µg/mL (≈ 0.358 µM) in experiment [2].

Consider `CCC[C@@H]1C[C@@H](C(=O)N[C@@H]([C@H]2O[C@H](SC)[C@H](O)[C@@H](O)[C@H]2O)[C@H](C)Cl)N(C)C1` [Clin, clindamycin], for which the results for the MIC50 in experiment [3] and in experiment [4] (50% inhibition of the growth control) were 0.125 µg/mL (≈ 0.294 µM) and 0.0625 µg/mL (≈ 0.147 µM), respectively. Moreover, the MIC90 in experiment [3] is 0.125 µg/mL (≈ 0.294 µM); in experiment [4] (90% inhibition), 0.25 µg/mL (≈ 0.588 µM).

For `NC[C@H]1O[C@H](O[C@H]2[C@H](O)[C@@H](O[C@H]3O[C@H](CO)[C@@H](O)[C@H](N)[C@H]3O)[C@H](N)C[C@@H]2N)[C@H](O)[C@@H](O)[C@@H]1O` [Kan, Kanamycin], the MIC50 in experiment [5] (UAMS1, 50% inhibition of growth) came out at 2 µg/mL (≈ 4.13 µM); in experiment [1], 1 µg/mL (≈ 2.06 µM); in experiment [6] (50% inhibition of growth), 1 µg/mL (≈ 2.06 µM); in experiment [2], 2 µg/mL (≈ 4.13 µM). The MIC90 in experiment [5] (UAMS1, 90% inhibition of growth) came out at 4 µg/mL (≈ 8.26 µM); in experiment [1], 4 µg/mL (≈ 8.26 µM); in experiment [6] (90% inhibition of growth), 2 µg/mL (≈ 4.13 µM); in experiment [2] it was 4 µg/mL (≈ 8.26 µM).
